Assay results published in patent US9062124B2, “GIP-based mixed agonists for treatment of metabolic disorders and obesity” (priority 2008, dated 2015).
Read-outs that look alike come from different tables or passages of the source. *1 amine or outer side, *2 acyl side, *3 side chain or, on linkers, in order; H or OH if unused. Where a SMILES comes first, the peptide text is derived from it. Bridges are numbered along the chain shown (N, C = ends). Where no end group is shown, it is not given here. Side-chain parts run from the residue outwards. [ ]: non-standard residue; d: D form. The star is where a group is joined. PEG 40 kDa = PEG (40 kDa) covalently attached to Cys; γGlu = O=C(O)[C@H](CCC(=O)[*:2])N[*:1]; Palmitoyl = CCCCCCCCCCCCCCCC(=O)*; Aib = CC(C)(N)C(=O)O

Key:
glucagon receptor = target: T1, glucagon receptor (Homo sapiens, UniProt P47871); assay: cAMP synthesis functional assay (firefly luciferase reporter in HEK293 cells), glucagon receptor; type: cell-based; conditions: for % Relative activity at the Receptor for Glucagon: Table 8
T1 construct: expressed in transfected cells; host or cells: HEK293
T1 sequence (P47871 26-477): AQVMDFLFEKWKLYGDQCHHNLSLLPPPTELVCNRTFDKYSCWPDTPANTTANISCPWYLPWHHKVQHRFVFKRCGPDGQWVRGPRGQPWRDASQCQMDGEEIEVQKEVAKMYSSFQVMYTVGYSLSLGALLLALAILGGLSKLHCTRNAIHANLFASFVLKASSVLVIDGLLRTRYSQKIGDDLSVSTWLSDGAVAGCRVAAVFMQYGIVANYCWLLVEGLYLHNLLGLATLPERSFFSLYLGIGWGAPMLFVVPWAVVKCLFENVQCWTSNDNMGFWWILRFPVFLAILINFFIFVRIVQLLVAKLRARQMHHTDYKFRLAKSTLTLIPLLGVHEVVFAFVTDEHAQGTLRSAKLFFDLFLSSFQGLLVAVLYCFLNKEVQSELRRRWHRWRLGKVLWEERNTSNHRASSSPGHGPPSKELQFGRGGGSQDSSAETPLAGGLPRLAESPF

GLP-1 receptor = target: T2, GLP-1 receptor (Homo sapiens, UniProt P43220); assay: cAMP synthesis functional assay (firefly luciferase reporter in HEK293 cells), GLP-1 receptor; type: cell-based; conditions: for % Relative activity at the Receptor for GLP-1: Table 8; for EC50: read-out: GLP-1 Receptor EC50
T2 construct: expressed in transfected cells; host or cells: HEK293
T2 sequence (P43220 24-463, species assumed): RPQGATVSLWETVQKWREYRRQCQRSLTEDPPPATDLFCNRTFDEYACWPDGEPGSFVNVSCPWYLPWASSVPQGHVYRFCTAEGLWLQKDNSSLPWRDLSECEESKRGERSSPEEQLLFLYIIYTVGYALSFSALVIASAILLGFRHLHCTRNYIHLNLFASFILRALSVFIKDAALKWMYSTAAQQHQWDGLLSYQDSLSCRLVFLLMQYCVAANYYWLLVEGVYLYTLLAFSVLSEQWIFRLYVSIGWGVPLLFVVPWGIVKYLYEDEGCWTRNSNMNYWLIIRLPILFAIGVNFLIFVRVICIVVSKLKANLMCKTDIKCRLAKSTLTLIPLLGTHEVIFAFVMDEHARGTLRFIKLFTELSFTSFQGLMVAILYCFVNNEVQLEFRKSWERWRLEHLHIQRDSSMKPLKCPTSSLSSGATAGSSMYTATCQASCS

[1] = Body weight of mice after peptide injection; conditions: DIO mice; for total change in body weight (weight loss, decrease): Example 41, subcutaneous daily for 7 days, 10 nmol/kg, Day 7
GIP receptor = target: T3, GIP receptor (Homo sapiens, UniProt P48546); assay: cAMP synthesis functional assay (firefly luciferase reporter in HEK293 cells), GIP receptor; type: cell-based; conditions: for % Relative activity at the Receptor for GIP: Table 8
T3 construct: expressed in transfected cells; host or cells: HEK293
T3 sequence (P48546 22-466): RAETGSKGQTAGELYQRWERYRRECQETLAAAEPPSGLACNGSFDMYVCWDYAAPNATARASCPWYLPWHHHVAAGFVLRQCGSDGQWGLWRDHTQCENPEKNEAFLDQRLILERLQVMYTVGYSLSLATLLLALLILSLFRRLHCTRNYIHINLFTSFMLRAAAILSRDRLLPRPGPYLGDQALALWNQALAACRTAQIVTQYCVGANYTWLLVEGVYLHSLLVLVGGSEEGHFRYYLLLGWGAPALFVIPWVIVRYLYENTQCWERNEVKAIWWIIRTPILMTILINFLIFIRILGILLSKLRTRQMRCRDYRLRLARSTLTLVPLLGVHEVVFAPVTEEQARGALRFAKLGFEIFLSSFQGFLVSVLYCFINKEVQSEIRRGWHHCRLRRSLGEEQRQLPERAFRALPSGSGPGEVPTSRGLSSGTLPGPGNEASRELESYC

[2] = test system: glucagon receptor, GLP-1 receptor or GIP receptor; assay: Agonist profile across receptors assigned from the cAMP reporter assay data; type: cell-based; conditions: assigned from the in vitro EC50 data of Tables 1-4
[3] = Table 4, relative to the native hormone
[4] = Table 1, relative to the native hormone of the indicated receptor
[5] = relative to the standard (Std.) EC50 of the same run

Molecule	Glucagon Receptor relative activity (glucagon receptor; [3]) [%]	% Relative activity at the Receptor for Glucagon (glucagon receptor) [%]	GLP-1 Receptor relative activity (GLP-1 receptor; [3]) [%]	% Relative activity at the Receptor for GLP-1 (GLP-1 receptor) [%]	total change in body weight (weight loss, decrease) [1] [%]	GIP Receptor relative activity (GIP receptor; [3]) [%]	% Relative activity at the Receptor for GIP (GIP receptor) [%]	receptor activity profile (glucagon / GLP-1 / GIP agonism) [2]	further results
CCCCCCCCCCCCCCCC(=O)N[C@@H](CCC(=O)N[C@@H](CCC(=O)NCCCC[C@H](NC(=O)[C@H](CO)NC(=O)[C@@H]1CCCN1C(=O)[C@@H]1CCCN1C(=O)[C@@H]1CCCN1C(=O)[C@H](C)NC(=O)CNC(=O)[C@H](CO)NC(=O)[C@H](CO)NC(=O)[C@@H]1CCCN1C(=O)CNC(=O)CNC(=O)[C@H](C)NC(=O)[C@H](CC(C)C)NC(=O)[C@H](CC(C)C)NC(=O)[C@H](Cc1c[nH]c2ccccc12)NC(=O)[C@H](CC(N)=O)NC(=O)[C@@H](NC(=O)[C@H](Cc1ccccc1)NC(=O)[C@H](CCC(=O)O)NC(=O)C(C)(C)NC(=O)[C@H](C)NC(=O)[C@H](C)NC(=O)[C@H](CCC(N)=O)NC(=O)[C@H](CCCCN)NC(=O)[C@H](CC(=O)O)NC(=O)[C@H](CC(C)C)NC(=O)[C@H](Cc1ccc(O)cc1)NC(=O)[C@@H](NC(=O)[C@H](CO)NC(=O)[C@H](Cc1ccc(O)cc1)NC(=O)[C@H](CC(=O)O)NC(=O)[C@H](CO)NC(=O)[C@@H](NC(=O)[C@H](Cc1ccccc1)NC(=O)[C@@H](NC(=O)CNC(=O)[C@H](CCC(=O)O)NC(=O)C(C)(C)NC(=O)[C@@H](N)Cc1ccc(O)cc1)[C@@H](C)O)[C@@H](C)O)[C@@H](C)CC)C(C)C)C(N)=O)C(=O)O)C(=O)O [mt-367]	4.11	4.11	405.94	405.94	~18	202.82	202.82	–	EC50 (GIP receptor; GIP Receptor EC50, nM, Table 4): 0.0014 nM
CCCCCCCCCCCCCCCC(=O)N[C@@H](CCC(=O)N[C@@H](CCC(=O)NCCCC[C@H](NC(=O)[C@H](CO)NC(=O)[C@@H]1CCCN1C(=O)[C@@H]1CCCN1C(=O)[C@@H]1CCCN1C(=O)[C@H](C)NC(=O)CNC(=O)[C@H](CO)NC(=O)[C@H](CO)NC(=O)[C@@H]1CCCN1C(=O)CNC(=O)CNC(=O)[C@H](C)NC(=O)[C@H](CC(C)C)NC(=O)[C@H](CC(C)C)NC(=O)[C@H](Cc1c[nH]c2ccccc12)NC(=O)[C@H](CC(N)=O)NC(=O)[C@@H](NC(=O)[C@H](Cc1ccccc1)NC(=O)[C@H](CCC(=O)O)NC(=O)C(C)(C)NC(=O)[C@H](C)NC(=O)[C@H](C)NC(=O)[C@H](CCC(N)=O)NC(=O)[C@H](CCCCN)NC(=O)[C@H](CC(=O)O)NC(=O)[C@H](CC(C)C)NC(=O)[C@H](Cc1ccc(O)cc1)NC(=O)[C@@H](NC(=O)[C@H](CO)NC(=O)[C@H](Cc1ccc(O)cc1)NC(=O)[C@H](CC(=O)O)NC(=O)[C@H](CO)NC(=O)[C@@H](NC(=O)[C@H](Cc1ccccc1)NC(=O)[C@@H](NC(=O)CNC(=O)[C@H](CCC(N)=O)NC(=O)C(C)(C)NC(=O)[C@@H](N)Cc1ccc(O)cc1)[C@@H](C)O)[C@@H](C)O)[C@@H](C)CC)C(C)C)C(N)=O)C(=O)O)C(=O)O [mt-368] (H-Y[Aib]QGTFTSDYSIYLDKQAA[Aib]EFVNWLLAGGPSSGAPPPSK([γGlu-γGlu-Palmitoyl])-NH2; N-terminus assumed)	491.82	491.82	418.93	418.93	~22	296.07	296.07	–	EC50 (glucagon receptor; Glucagon Receptor EC50, nM, Table 4): 0.0069 nM
CCCCCCCCCCCCCCCC(=O)N[C@@H](CCC(=O)N[C@@H](CCC(=O)NCCCC[C@H](NC(=O)[C@H](CC(=O)O)NC(=O)[C@H](CO)NC(=O)[C@@H](NC(=O)[C@H](Cc1ccccc1)NC(=O)[C@@H](NC(=O)CNC(=O)[C@H](CCC(=O)O)NC(=O)C(C)(C)NC(=O)[C@@H](N)Cc1ccc(O)cc1)[C@@H](C)O)[C@@H](C)O)C(=O)N[C@@H](CO)C(=O)N[C@H](C(=O)N[C@@H](Cc1ccc(O)cc1)C(=O)N[C@@H](CC(C)C)C(=O)N[C@@H](CC(=O)O)C(=O)N[C@@H](CCCCN)C(=O)N[C@@H](CCC(N)=O)C(=O)N[C@@H](C)C(=O)N[C@@H](C)C(=O)NC(C)(C)C(=O)N[C@@H](CCC(=O)O)C(=O)N[C@@H](Cc1ccccc1)C(=O)N[C@H](C(=O)N[C@@H](CC(N)=O)C(=O)N[C@@H](Cc1c[nH]c2ccccc12)C(=O)N[C@@H](CC(C)C)C(=O)N[C@@H](CC(C)C)C(=O)N[C@@H](C)C(=O)NCC(=O)NCC(=O)N1CCC[C@H]1C(=O)N[C@@H](CO)C(=O)N[C@@H](CO)C(=O)NCC(=O)N[C@@H](C)C(=O)N1CCC[C@H]1C(=O)N1CCC[C@H]1C(=O)N1CCC[C@H]1C(=O)N[C@@H](CO)C(=O)N[C@@H](CCCCN)C(N)=O)C(C)C)[C@@H](C)CC)C(=O)O)C(=O)O [mt-369] (H-Y[Aib]EGTFTSDK([γGlu-γGlu-Palmitoyl])SIYLDKQAA[Aib]EFVNWLLAGGPSSGAPPPSK-NH2; N-terminus assumed)	1.54	1.54	385.05	385.05	~25	204.26	204.26	–	EC50 (GIP receptor; GIP Receptor EC50, nM, Table 4): 0.0014 nM
mt-170: lactam-containing GLP-1/GIP/glucagon triagonist peptide, C-terminal amide (Y[Aib]QGTFTSDYSIYLDEQAAKEFVNWLLAGGPSSGAPPPSC(PEG 40 kDa)-NH2; lactam 16-20)	–	–	–	–	–	–	–	exemplary GLP-1/GIP/glucagon triagonist peptides	reduction of body weight ([1]; Example 22, subcutaneous QW, 70 or 210 nmol/kg/week): a little more effective at reducing body weight in the mice as Chimera 2 AIB2, but not as effective as Chimera 2 AIB2 lactam
mt-179: glucagon analog peptide, C-terminal amide; called GIP/glucagon co-agonist and triagonist (Y[Aib]QGTFISDYSIYLDEQAAKEFVC(PEG 40 kDa)WLLAG-NH2; lactam 16-20)	–	–	–	–	–	–	–	exemplary GLP-1/GIP/glucagon triagonist peptides	Glucagon Receptor relative activity (glucagon receptor; [4]): 2.92%; EC50 (glucagon receptor; read-out: Glucagon Receptor EC50, Table 1): 1.27 nM; GLP-1 Receptor relative activity (GLP-1 receptor; [4]): 7.50%; EC50 (GLP-1 receptor; Table 1): 0.26 nM; GIP Receptor relative activity (GIP receptor; [4]): 3.74%; EC50 (GIP receptor; read-out: GIP Receptor EC50, Table 1): 0.473 nM
mt-249: linear peptide lacking a lactam bridge, AIB at position 16 and/or 20 (Y[Aib]QGTFTSDYSIYLD[Aib]QAAQEFVNWLLAGGPSSGAPPPSC(PEG 40 kDa)-NH2)	–	–	–	–	–	–	–	exhibited activities of glucagon/GLP-1/GIP triagonists	Glucagon Receptor relative activity (glucagon receptor; Table 2): 0.59%; EC50 (glucagon receptor; read-out: Glucagon Receptor EC50, Table 2, linear peptides with AIB at position 16 and/or 20): 10.3 nM; GLP-1 Receptor relative activity (GLP-1 receptor; Table 2): 2.56%; EC50 (GLP-1 receptor; Table 2): 0.391 nM; GIP Receptor relative activity (GIP receptor; Table 2): 0.63%; EC50 (GIP receptor; read-out: GIP Receptor EC50, Table 2): 2.71 nM
mt-295: linear peptide of Table 3 (Y[Aib]EGTFTSDYSIYLDKQAA[Aib]EFVNWLLAGGPSSGAPPPSC(PEG 40 kDa)-NH2)	–	–	–	–	–	–	–	exhibited activity at the GIP, GLP-1, and glucagon receptors	Glucagon Receptor relative activity (glucagon receptor; [5]): 0.03%; EC50 (GLP-1 receptor; cAMP luciferase reporter assay as in Example 16): 0.114 nM; GLP-1 Receptor relative activity (GLP-1 receptor; [5]): 6.74%; EC50 (GIP receptor; read-out: GIP Receptor EC50, cAMP luciferase reporter assay as in Example 16): 0.0577 nM; GIP Receptor relative activity (GIP receptor; [5]): 19.06%
mt-384: glucagon analog: Tyr1, AIB2, Lys10(γGlu-γGlu-C16), Ile12, Lys16, Gln17, Ala18, AIB20, Glu21, Asn24, Leu27, Ala28, Gly29, GPSSGAPPPS, amide (Y[Aib]QGTFTSDK([γGlu-γGlu-C16])SIYLDKQAA[Aib]EFVNWLLAGGPSSGAPPPS-NH2)	–	–	–	–	~21	–	–	–	–
mt-385: same structure as Peptide mt-384 except that Thr at position 7 was changed to an Ile (Y[Aib]QGTFISDK([γGlu-γGlu-C16])SIYLDKQAA[Aib]EFVNWLLAGGPSSGAPPPS-NH2)	–	–	–	–	~15	–	–	–	–
